According to US20070082877A1, “Difluoromethylbenzanilides and use thereof for combating micro-organisms, intermediate products and use thereof” (BAYER CORPSCIENCE AKTIENGESELLSCHAFT, priority 2003, published 2007):

Test: log P determination by HPLC on reversed-phase column (C 18), EEC directive 79/831 Annex V.A8
Type: physicochemical
Conditions: reversed-phase HPLC column (C 18), acidic range pH 2.3, 43° C.
Description: The given log P values were determined in accordance with EEC directive 79/831 Annex V.A8 by HPLC (High Performance Liquid Chromatography) on a reversed-phase column (C 18). Temperature: 43° C. Mobile phases for the determination in the acidic range (pH 2.3): 0.1% aqueous phosphoric acid, acetonitrile; linear gradient from 10% acetonitrile to 90% acetonitrile. Calibration was carried out using unbranched alkan-2-ones (having 3 to 6 carbon atoms) with known log P values (determination of the log P values by the retention times using linear interpolation between two successive alkanones).

CC(CC(C)(C)C)c1ccccc1NC(=O)c1ccccc1C(F)F (stereo not shown) [No. 1, 2-difluoromethyl-N-[2-(1,3,3-trimethylbutyl)phenyl]benzamide]
chromatographic logP: 4.38
